pEC50: −log10 of the molar value. “And” between values parts separate entries of the source, which are not always exact repeats. Identical values can stand only once. Like-named read-outs stand apart in the source and are kept apart here.
Columns and labels:
DENV-2 RL strain = assay: Day 3 viraemia model, high viral inoculum (10^6 PFU); format: in vivo, AG129 mice
INF-A Taiwan/1/86 = assay: microbe, parasite or virus in culture; format: cell-based; details: Influenza A virus, MDCK
[1] = Study 1 - 160222, 6 mg/kg/d, individual animals, listed as 64281802-AAA
[2] = Study 1 - 160222, 60 mg/kg/d, individual animals, listed as 64281802-AAA
[3] = Study 2 - 160510, 0,6 mg/kg/d, individual animals, listed as 64281802-AAA
[4] = Study 2 - 160510, 2 mg/kg/d, individual animals, listed as 64281802-AAA
[5] = Study 2 - 160510, 6 mg/kg/d, individual animals, listed as 64281802-AAA
[6] = Study 2 - 160510, 20 mg/kg/d, individual animals, listed as 64281802-AAA
[7] = Study 3 - 170410, 0,2 mg/kg/d, first group of 8, individual animals, listed as 64281802-AAA
[8] = Study 3 - 170410, 0,2 mg/kg/d, second group of 8, individual animals, listed as 64281802-AAA
[9] = Study 3 - 170410, 0,6 mg/kg/d, individual animals, listed as 64281802-AAA
[10] = Study 3 - 170410, 20 mg/kg/d, individual animals

Compound: COc1cc(N[C@H](C(=O)c2c[nH]c3ccc(OC(F)(F)F)cc23)c2ccc(Cl)cc2OC)cc(S(C)(=O)=O)c1 [JNJ-1802]
- Av Log 10 (average) (DENV-2 RL strain; Study 1 - 160222, 6 mg/kg/d, group average): 4.74
- Av Log 10 (Ave/Med: median) (DENV-2 RL strain; Study 1 - 160222, 6 mg/kg/d, group median): 4.84
- Copy number (DENV-2 RL strain; [1]): 5.85E+04 and 1.40E+05 and 1.03E+05 and 2.15E+04 and 1.94E+05 and 8.27E+04 and 1.06E+04 and 2.60E+04
- Log 10 (copy number) (DENV-2 RL strain; [1]): 4.77 and 5.15 and 5.01 and 4.33 and 5.29 and 4.92 and 4.03 and 4.41
- Av Log 10 (average) (DENV-2 RL strain; Study 1 - 160222, 60 mg/kg/d, group average): 3.05
- Av Log 10 (Ave/Med: median) (DENV-2 RL strain; Study 1 - 160222, 60 mg/kg/d, group median): 2.59
- Copy number (DENV-2 RL strain; [2]): 3.93E+02 and 1.22E+04 and 1.55E+03 and 5.28E+03
- Log 10 (copy number) (DENV-2 RL strain; [2]): 2.59 and 4.09 and 3.19 and 3.72
- Av Log 10 (average) (DENV-2 RL strain; Study 2 - 160510, 0,6 mg/kg/d, group average): 4.52
- Av Log 10 (Ave/Med: median) (DENV-2 RL strain; Study 2 - 160510, 0,6 mg/kg/d, group median): 4.66
- Copy number (DENV-2 RL strain; [3]): 3.02E+04 and 4.20E+05 and 7.57E+04 and 6.60E+04 and 3.93E+02 and 1.74E+04 and 1.01E+05 and 3.12E+04
- Log 10 (copy number) (DENV-2 RL strain; [3]): 4.48 and 5.62 and 4.88 and 4.82 and 2.59 and 4.24 and 5.00 and 4.49
- Av Log 10 (average) (DENV-2 RL strain; Study 2 - 160510, 2 mg/kg/d, group average): 4.07
- Av Log 10 (Ave/Med: median) (DENV-2 RL strain; Study 2 - 160510, 2 mg/kg/d, group median): 4.30
- Copy number (DENV-2 RL strain; [4]): 2.06E+04 and 6.20E+04 and 1.87E+04 and 2.60E+04 and 3.93E+02 and 1.87E+05
- Log 10 (copy number) (DENV-2 RL strain; [4]): 4.31 and 4.28 and 4.79 and 4.27 and 4.41 and 2.59 and 5.27
- Av Log 10 (average) (DENV-2 RL strain; Study 2 - 160510, 6 mg/kg/d, group average): 3.78
- Av Log 10 (Ave/Med: median) (DENV-2 RL strain; Study 2 - 160510, 6 mg/kg/d, group median): 3.87
- Copy number (DENV-2 RL strain; [5]): 9.12E+03 and 5.17E+03 and 3.62E+04 and 5.97E+03 and 3.93E+02
- Log 10 (copy number) (DENV-2 RL strain; [5]): 3.96 and 3.71 and 4.56 and 4.11 and 3.78 and 2.59
- Av Log 10 (average) (DENV-2 RL strain; Study 2 - 160510, 20 mg/kg/d, group average): 2.83
- Av Log 10 (Ave/Med: median) (DENV-2 RL strain; Study 2 - 160510, 20 mg/kg/d, group median): 2.59
- Copy number (DENV-2 RL strain; [6]): 1.05E+04 and 3.93E+02
- Log 10 (copy number) (DENV-2 RL strain; [6]): 4.02 and 2.59
- Av Log 10 (average) (DENV-2 RL strain; Study 3 - 170410, 0,2 mg/kg/d, first group of 8, group average): 6.01
- Av Log 10 (Ave/Med: median) (DENV-2 RL strain; Study 3 - 170410, 0,2 mg/kg/d, first group of 8, group median): 6.07
- Copy number (DENV-2 RL strain; [7]): 1.86E+06 and 1.20E+06 and 1.13E+06 and 8.80E+05 and 2.24E+05 and 2.37E+06
- Log 10 (copy number) (DENV-2 RL strain; [7]): 6.27 and 6.08 and 6.05 and 5.94 and 5.35 and 6.38
- Av Log 10 (average) (DENV-2 RL strain; Study 3 - 170410, 0,2 mg/kg/d, second group of 8, group average): 5.85
- Av Log 10 (Ave/Med: median) (DENV-2 RL strain; Study 3 - 170410, 0,2 mg/kg/d, second group of 8, group median): 6.03
- Copy number (DENV-2 RL strain; [8]): 1.58E+06 and 7.37E+04 and 5.97E+06 and 8.67E+05 and 1.42E+06 and 1.06E+06 and 9.43E+04
- Log 10 (copy number) (DENV-2 RL strain; [8]): 6.20 and 4.87 and 6.78 and 5.94 and 6.15 and 6.03 and 4.97
- Av Log 10 (average) (DENV-2 RL strain; Study 3 - 170410, 0,6 mg/kg/d, group average): 3.92
- Av Log 10 (Ave/Med: median) (DENV-2 RL strain; Study 3 - 170410, 0,6 mg/kg/d, group median): 4.48
- Copy number (DENV-2 RL strain; [9]): 3.45E+04 and 2.62E+04 and 3.90E+04 and 3.93E+02
- Log 10 (copy number) (DENV-2 RL strain; [9]): 5.16 and 4.86 and 4.54 and 4.42 and 4.59 and 2.59
- Av Log 10 (average) (DENV-2 RL strain; Study 3 - 170410, 20 mg/kg/d, group average): 2.59
- Av Log 10 (Ave/Med: median) (DENV-2 RL strain; Study 3 - 170410, 20 mg/kg/d, group median): 2.59
- Copy number (DENV-2 RL strain; [10]): 3.93E+02
- Log 10 (copy number) (DENV-2 RL strain; [10]): 2.59
- Copy number (DENV-2 RL strain; mouse, in vivo, 6 mg/kg/day): 1.28E+04
- pEC50 (INF-A Taiwan/1/86): < 5.59
- pEC50 (INF-A Taiwan/1/86; read-out: EC50, Mean): < 4.60
- EC90 (INF-A Taiwan/1/86; read-out: EC90, Mean): > 25 µM

Source: PMC10033419, “Blocking NS3–NS4B interaction inhibits dengue virus in non-human primates” (Nature, 2023)
